For 34 compounds, Ki results are on record in patent publication US8940724B2, “Quinoline derivitives and their uses” (Amgen Inc., priority 2009, dated 2015).

In the test the target is T1, PI3Kδ (Homo sapiens, UniProt O00329).
T1 construct: Full length p110 subunits of PI3k α, β and δ, N-terminally labeled with polyHis tag; polyHis (N); made in house; host or cells: Sf9 insect cells (baculovirus)
T1 sequence (O00329 whole entry): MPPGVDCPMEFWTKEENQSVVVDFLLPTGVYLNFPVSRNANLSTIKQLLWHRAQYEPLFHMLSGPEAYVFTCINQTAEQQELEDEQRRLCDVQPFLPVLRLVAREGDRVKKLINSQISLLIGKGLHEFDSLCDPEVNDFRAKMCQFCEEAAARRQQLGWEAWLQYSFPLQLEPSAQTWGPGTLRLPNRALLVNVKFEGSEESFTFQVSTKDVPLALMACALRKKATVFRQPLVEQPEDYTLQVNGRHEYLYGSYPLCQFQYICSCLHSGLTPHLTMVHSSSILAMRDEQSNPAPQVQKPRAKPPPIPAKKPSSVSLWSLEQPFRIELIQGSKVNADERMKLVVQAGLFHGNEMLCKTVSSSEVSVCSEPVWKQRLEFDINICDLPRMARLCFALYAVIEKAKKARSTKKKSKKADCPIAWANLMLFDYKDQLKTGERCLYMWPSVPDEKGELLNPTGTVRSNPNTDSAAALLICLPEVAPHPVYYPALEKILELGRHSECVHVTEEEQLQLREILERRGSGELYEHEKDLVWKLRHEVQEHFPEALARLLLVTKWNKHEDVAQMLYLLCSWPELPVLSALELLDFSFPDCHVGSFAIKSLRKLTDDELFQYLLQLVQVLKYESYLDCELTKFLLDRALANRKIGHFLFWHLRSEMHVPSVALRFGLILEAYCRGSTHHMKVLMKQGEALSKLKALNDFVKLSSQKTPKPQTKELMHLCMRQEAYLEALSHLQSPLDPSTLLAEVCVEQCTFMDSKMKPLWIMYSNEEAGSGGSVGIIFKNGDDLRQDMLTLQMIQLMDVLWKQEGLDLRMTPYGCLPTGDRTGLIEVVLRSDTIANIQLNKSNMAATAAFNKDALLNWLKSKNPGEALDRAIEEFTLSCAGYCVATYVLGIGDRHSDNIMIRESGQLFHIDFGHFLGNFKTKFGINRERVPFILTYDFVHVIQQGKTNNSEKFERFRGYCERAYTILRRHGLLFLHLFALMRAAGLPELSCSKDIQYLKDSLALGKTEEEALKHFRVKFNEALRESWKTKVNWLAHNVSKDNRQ
T1 sequence (P27986 whole entry partner): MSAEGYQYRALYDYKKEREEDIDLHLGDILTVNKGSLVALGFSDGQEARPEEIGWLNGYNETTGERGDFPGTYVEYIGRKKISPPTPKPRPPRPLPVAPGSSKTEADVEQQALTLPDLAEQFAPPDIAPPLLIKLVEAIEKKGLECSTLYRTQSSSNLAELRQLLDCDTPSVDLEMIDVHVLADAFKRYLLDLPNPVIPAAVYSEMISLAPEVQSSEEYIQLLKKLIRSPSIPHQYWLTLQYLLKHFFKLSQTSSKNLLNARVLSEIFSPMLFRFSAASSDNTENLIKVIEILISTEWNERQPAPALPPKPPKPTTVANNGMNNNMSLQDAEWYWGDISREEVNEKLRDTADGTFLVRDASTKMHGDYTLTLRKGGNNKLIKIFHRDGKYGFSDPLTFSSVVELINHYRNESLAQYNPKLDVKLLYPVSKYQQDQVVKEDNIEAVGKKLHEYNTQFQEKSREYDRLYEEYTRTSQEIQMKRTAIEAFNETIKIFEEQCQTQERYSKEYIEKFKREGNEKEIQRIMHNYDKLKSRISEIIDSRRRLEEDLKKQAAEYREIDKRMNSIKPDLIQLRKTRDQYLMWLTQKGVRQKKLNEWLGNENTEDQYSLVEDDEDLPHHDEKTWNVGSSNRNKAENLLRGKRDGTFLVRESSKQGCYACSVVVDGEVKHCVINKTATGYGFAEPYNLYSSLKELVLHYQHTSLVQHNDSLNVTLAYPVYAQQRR
The experiment in a line: PI3Kδ Alphascreen assay. Format: biochemical. On the technique in general: In Alpha technology, singlet oxygen from a donor bead excites a nearby acceptor bead.
One may read the Ki as the dissociation constant of the complex between target and ligand, obtained from inhibition or displacement. A lower Ki goes with higher affinity. Turning to `Cc1c(-c2cccc3c2cnn3C)nc2cc(F)cc(F)c2c1Nc1cc(N2CCOCC2)cnc1N1CCOCC1` [N-(2,5-di-4-morpholinyl-3-pyridinyl)-5,7-difluoro-3-methyl-2-(1-methyl-1H-indazol-4-yl)-4-quinolinamine], the Ki turned out to be 8.6 nM. The value for `Cc1c(-c2cccc3c2ccn3C)nc2cc(F)cc(F)c2c1Nc1cc(N2CCOCC2)cnc1N1CCOCC1` [N-(2,5-di-4-morpholinyl-3-pyridinyl)-5,7-difluoro-3-methyl-2-(1-methyl-1H-indol-4-yl)-4-quinolinamine] was 16.1 nM. To `Cc1c(-c2ccnc(N3CCNCC3)c2)nc2cc(F)cc(F)c2c1Nc1cc(N2CCOCC2)cnc1N1CCOCC1` [N-(2,5-di-4-morpholinyl-3-pyridinyl)-5,7-difluoro-3-methyl-2-(2-(1-piperazinyl)-4-pyridinyl)-4-quinolinamine] belongs 34.7 nM. The compound `Cc1c(-c2ccnc(N3CCCC3)c2)nc2cc(F)cc(F)c2c1Nc1cc(N2CCOCC2)cnc1N1CCOCC1` [N-(2,5-di-4-morpholinyl-3-pyridinyl)-5,7-difluoro-3-methyl-2-(2-(1-pyrrolidinyl)-4-pyridinyl)-4-quinolinamine] gave a Ki of 40.7 nM. The value for `Cc1c(-c2ccnc(N3CCN(C)CC3)c2)nc2cc(F)cc(F)c2c1Nc1cc(N2CCOCC2)cnc1N1CCOCC1` [N-(2,5-di-4-morpholinyl-3-pyridinyl)-5,7-difluoro-3-methyl-2-(2-(4-methyl-1-piperazinyl)-4-pyridinyl)-4-quinolinamine] was 15 nM. `Cc1c(-c2ccccc2[S@+](C)[O-])nc2cc(F)cc(F)c2c1Nc1cc(N2CCOCC2)cnc1N1CCOCC1` [N-(2,5-di-4-morpholinyl-3-pyridinyl)-5,7-difluoro-3-methyl-2-(2-((S)-methylsulfinyl)phenyl)-4-quinolinamine] returned a Ki of 51 nM. To `Cc1ncccc1-c1nc2cc(F)cc(F)c2c(Nc2cc(N3CCOCC3)cnc2N2CCOCC2)c1C` [N-(2,5-di-4-morpholinyl-3-pyridinyl)-5,7-difluoro-3-methyl-2-(2-methyl-3-pyridinyl)-4-quinolinamine] belongs 1.71 nM; to `Cc1cc(C(F)(F)F)ccc1-c1nc2cc(F)cc(F)c2c(Nc2cc(N3CCOCC3)cnc2N2CCOCC2)c1C` [N-(2,5-di-4-morpholinyl-3-pyridinyl)-5,7-difluoro-3-methyl-2-(2-methyl-4-(trifluoromethyl)phenyl)-4-quinolinamine], 248 nM; to `Cc1cc(-c2nc3cc(F)cc(F)c3c(Nc3cc(N4CCOCC4)cnc3N3CCOCC3)c2C)ccn1` [N-(2,5-di-4-morpholinyl-3-pyridinyl)-5,7-difluoro-3-methyl-2-(2-methyl-4-pyridinyl)-4-quinolinamine], 26.5 nM. In the case of `Cc1c(-c2cnccn2)nc2cc(F)cc(F)c2c1Nc1cc(N2CCOCC2)cnc1N1CCOCC1` [N-(2,5-di-4-morpholinyl-3-pyridinyl)-5,7-difluoro-3-methyl-2-(2-pyrazinyl)-4-quinolinamine], the Ki was determined as 7.95 nM. Regarding `Cc1c(-c2cccnc2)nc2cc(F)cc(F)c2c1Nc1cc(N2CCOCC2)cnc1N1CCOCC1` [N-(2,5-di-4-morpholinyl-3-pyridinyl)-5,7-difluoro-3-methyl-2-(3-pyridinyl)-4-quinolinamine], the affinity, expressed as Ki, was 8.43 nM.

`Cc1c(N2CCN(C)CC2)nc2cc(F)cc(F)c2c1Nc1cc(N2CCOCC2)cnc1N1CCOCC1` [N-(2,5-di-4-morpholinyl-3-pyridinyl)-5,7-difluoro-3-methyl-2-(4-methyl-1-piperazinyl)-4-quinolinamine] had a Ki of 12 nM. To `Cc1ccnc(-c2nc3cc(F)cc(F)c3c(Nc3cc(N4CCOCC4)cnc3N3CCOCC3)c2C)c1` [N-(2,5-di-4-morpholinyl-3-pyridinyl)-5,7-difluoro-3-methyl-2-(4-methyl-2-pyridinyl)-4-quinolinamine] belongs 237 nM; to `Cc1ccncc1-c1nc2cc(F)cc(F)c2c(Nc2cc(N3CCOCC3)cnc2N2CCOCC2)c1C` [N-(2,5-di-4-morpholinyl-3-pyridinyl)-5,7-difluoro-3-methyl-2-(4-methyl-3-pyridinyl)-4-quinolinamine], 1.61 nM; to `Cc1c(-c2cc(-c3ccccc3)ccn2)nc2cc(F)cc(F)c2c1Nc1cc(N2CCOCC2)cnc1N1CCOCC1` [N-(2,5-di-4-morpholinyl-3-pyridinyl)-5,7-difluoro-3-methyl-2-(4-phenyl-2-pyridinyl)-4-quinolinamine], 47.9 nM. The value for `CSc1cncc(-c2nc3cc(F)cc(F)c3c(Nc3cc(N4CCOCC4)cnc3N3CCOCC3)c2C)c1` [N-(2,5-di-4-morpholinyl-3-pyridinyl)-5,7-difluoro-3-methyl-2-(5-(methylsulfanyl)-3-pyridinyl)-4-quinolinamine] was 11.3 nM; that for `Cc1c(-c2cncc(S(C)(=O)=O)c2)nc2cc(F)cc(F)c2c1Nc1cc(N2CCOCC2)cnc1N1CCOCC1` [N-(2,5-di-4-morpholinyl-3-pyridinyl)-5,7-difluoro-3-methyl-2-(5-(methylsulfonyl)-3-pyridinyl)-4-quinolinamine] was 83.8 nM.

`Cc1ccc(S(C)(=O)=O)c(-c2nc3cc(F)cc(F)c3c(Nc3cc(N4CCOCC4)cnc3N3CCOCC3)c2C)c1` [N-(2,5-di-4-morpholinyl-3-pyridinyl)-5,7-difluoro-3-methyl-2-(5-methyl-2-(methylsulfonyl)phenyl)-4-quinolinamine]: the Ki was 8.22 nM. Regarding `Cc1cncc(-c2nc3cc(F)cc(F)c3c(Nc3cc(N4CCOCC4)cnc3N3CCOCC3)c2C)c1` [N-(2,5-di-4-morpholinyl-3-pyridinyl)-5,7-difluoro-3-methyl-2-(5-methyl-3-pyridinyl)-4-quinolinamine], the inhibition constant Ki turned out to be 8.92 nM. `Cc1c(-c2ccc(N3CCNCC3)nc2)nc2cc(F)cc(F)c2c1Nc1cc(N2CCOCC2)cnc1N1CCOCC1` [N-(2,5-di-4-morpholinyl-3-pyridinyl)-5,7-difluoro-3-methyl-2-(6-(1-piperazinyl)-3-pyridinyl)-4-quinolinamine] gave a Ki of 56.3 nM.

As to `Cc1c(-c2ccc(N3CCCCC3)nc2)nc2cc(F)cc(F)c2c1Nc1cc(N2CCOCC2)cnc1N1CCOCC1` [N-(2,5-di-4-morpholinyl-3-pyridinyl)-5,7-difluoro-3-methyl-2-(6-(1-piperidinyl)-3-pyridinyl)-4-quinolinamine], the Ki was 44 nM.

Turning to `Cc1c(-c2ccc(N3CCCC3)nc2)nc2cc(F)cc(F)c2c1Nc1cc(N2CCOCC2)cnc1N1CCOCC1` [N-(2,5-di-4-morpholinyl-3-pyridinyl)-5,7-difluoro-3-methyl-2-(6-(1-pyrrolidinyl)-3-pyridinyl)-4-quinolinamine], the affinity, expressed as Ki, was 46.8 nM. `Cc1c(-c2ccc(N3CCN(C)CC3)nc2)nc2cc(F)cc(F)c2c1Nc1cc(N2CCOCC2)cnc1N1CCOCC1` [N-(2,5-di-4-morpholinyl-3-pyridinyl)-5,7-difluoro-3-methyl-2-(6-(4-methyl-1-piperazinyl)-3-pyridinyl)-4-quinolinamine] came in with a Ki of 295 nM.

In turn, `Cc1c(-c2ccc(N3CCC(C)CC3)nc2)nc2cc(F)cc(F)c2c1Nc1cc(N2CCOCC2)cnc1N1CCOCC1` [N-(2,5-di-4-morpholinyl-3-pyridinyl)-5,7-difluoro-3-methyl-2-(6-(4-methyl-1-piperidinyl)-3-pyridinyl)-4-quinolinamine] returned a Ki of 134 nM. The value for `Cc1c(-c2ccc(N3CCOCC3)nc2)nc2cc(F)cc(F)c2c1Nc1cc(N2CCOCC2)cnc1N1CCOCC1` [N-(2,5-di-4-morpholinyl-3-pyridinyl)-5,7-difluoro-3-methyl-2-(6-(4-morpholinyl)-3-pyridinyl)-4-quinolinamine] was 67.5 nM.

The compound `Cc1c(-c2ccc(C(F)(F)F)nc2)nc2cc(F)cc(F)c2c1Nc1cc(N2CCOCC2)cnc1N1CCOCC1` [N-(2,5-di-4-morpholinyl-3-pyridinyl)-5,7-difluoro-3-methyl-2-(6-(trifluoromethyl)-3-pyridinyl)-4-quinolinamine] came in with a Ki of 23.2 nM. The value for `Cc1ccc(-c2nc3cc(F)cc(F)c3c(Nc3cc(N4CCOCC4)cnc3N3CCOCC3)c2C)cn1` [N-(2,5-di-4-morpholinyl-3-pyridinyl)-5,7-difluoro-3-methyl-2-(6-methyl-3-pyridinyl)-4-quinolinamine] was 18 nM. The value for `Cc1c(-c2ccccn2)nc2c(F)cc(F)cc2c1Nc1cc(N2CCOCC2)cnc1N1CCOCC1` [N-(2,5-di-4-morpholinyl-3-pyridinyl)-6,8-difluoro-3-methyl-2-(2-pyridinyl)-4-quinolinamine] was 345 nM; that for `Cc1c(-c2cc([N+](=O)[O-])ccc2F)nc2cc(F)ccc2c1Nc1cc(N2CCOCC2)cnc1N1CCOCC1` [N-(2,5-di-4-morpholinyl-3-pyridinyl)-7-fluoro-2-(2-fluoro-5-nitrophenyl)-3-methyl-4-quinolinamine] was 11.2 nM; that for `Cc1ccnc(-c2nc3cc(F)ccc3c(Nc3cc(N4CCOCC4)cnc3N3CCOCC3)c2C(C)C)c1` [N-(2,5-di-4-morpholinyl-3-pyridinyl)-7-fluoro-3-(1-methylethyl)-2-(4-methyl-2-pyridinyl)-4-quinolinamine] was 14.3 nM. The value for `Cc1c(-c2cc([N+](=O)[O-])ccc2S(C)(=O)=O)nc2cc(F)ccc2c1Nc1cc(N2CCOCC2)cnc1N1CCOCC1` [N-(2,5-di-4-morpholinyl-3-pyridinyl)-7-fluoro-3-methyl-2-(2-(methylsulfonyl)-5-nitrophenyl)-4-quinolinamine] was 8.25 nM. On to `Cc1ccnc(-c2nc3cc(F)ccc3c(Nc3cc(N4CCOCC4)cnc3N3CCOCC3)c2C)c1` [N-(2,5-di-4-morpholinyl-3-pyridinyl)-7-fluoro-3-methyl-2-(4-methyl-2-pyridinyl)-4-quinolinamine], for which the Ki came to 35.1 nM.

In the case of `Cc1c(-c2ccccn2)nc2cnccc2c1Nc1cc(N2CCOCC2)ccc1N1CCOCC1` [N-(2,5-di-4-morpholinylphenyl)-3-methyl-2-(2-pyridinyl)-1,7-naphthyridin-4-amine], the affinity corresponds to a Ki of 876 nM. Take `Cc1c(-c2ccccn2)nc2ncccc2c1Nc1cc(N2CCOCC2)ccc1N1CCOCC1` [N-(2,5-di-4-morpholinylphenyl)-3-methyl-2-(2-pyridinyl)-1,8-naphthyridin-4-amine]: the Ki is 582 nM.
